In PMC5978685, “Design, Synthesis, and Evaluation of Novel Immunomodulatory Small Molecules Targeting the CD40–CD154 Costimulatory Protein-Protein Interaction” (Molecules : A Journal of Synthetic Chemistry and Natural …, 2018):

What was measured:
CD40–CD154 (CD40L) = target: T1, CD40–CD154 (CD40L) (Homo sapiens, UniProt P29965); assay: cell-free ELISA-type binding inhibition assay, CD40–CD154; conditions: cell-free CD40–CD154 binding inhibition; read-out: CD40 IC50
T1 construct: purchased Enzo Life Sciences
T1 sequence (P29965 116-261 limits assumed): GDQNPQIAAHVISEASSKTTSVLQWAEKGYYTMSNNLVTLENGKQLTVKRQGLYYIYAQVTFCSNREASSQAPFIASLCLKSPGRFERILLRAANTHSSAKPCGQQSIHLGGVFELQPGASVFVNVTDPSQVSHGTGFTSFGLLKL
Description: As a first assessment, the CD40–CD154 inhibitory activity of compounds 6–19 (Figure 2, Table 1) was quantified using a cell-free in vitro binding inhibition assay as described before. Data fitted with typical sigmoidal concentration dependence curves (log inhibitor versus response model in GraphPad Prism, Hill slope n = 1) are summarized in Figure 3A. […] Polymolecular conglomeration and/or aggregation is often a cause of promiscuous inhibition in screening assays. Therefore, just as in our previous work, we checked for this, and we confirmed for several compounds that inhibition due to aggregation is not the case by retesting inhibitory activity in the presence of a non-ionic detergent (Triton-X 100, 0.01%) as recommended for the detection of such effects.
(§1) Binding inhibition assays were performed in a 96-well cell-free format as described before. Briefly, microtiter plates (Nunc F Maxisorp, 96-well; Thermo Fisher Scientific, Waltham, MA, USA) were coated overnight at 4 °C with 100 μL/well of Fc-conjugated receptors diluted in PBS pH 7.2. This was followed by blocking with 200 μL/well of blocking solution (PBS pH 7.2, 0.05% Tween-20, 1% BSA) for 1 h at RT. Then, plates were washed twice using washing solution (PBS pH 7.4, 0.05% Tween-20) and tapped dry before the addition of the appropriate FLAG tagged ligands along with different concentrations of tested dyes diluted in binding buffer (100 mM HEPES, 0.005% BSA pH 7.2) to give a total volume of 100 μL/well. After 1 h incubation, three washes were conducted, and anti-FLAG HRP conjugate was used to detect the bound FLAG-tagged ligand. Plates were washed four times before the addition of 120 μL/well of HRP substrate TMB (3,3′,5,5′-tetramethylbenzidine) and kept in the dark for up to 15 min. The reaction was stopped using 30 μL of 1M H2SO4, and the absorbance value was read at 450 nm. The concentrations of receptors used were 0.3 μg/mL for CD40, TNF-R1, and BAFFR; 0.6 μg/mL for OX40. The concentrations of the ligands were fixed at 0.02 μg/mL for CD154 and TNF-α, 0.06 μg/mL for OX40L, and 0.03 μg/mL for BAFF. These values were selected following preliminary testing to optimize response (i.e., to produce a high-enough signal at conditions close to half-maximal response, EC50). […] To verify that inhibition is not due to colloidal aggregation, CD40 binding inhibition was also measured in the presence of the non-ionic detergent Triton-X 100 (0.01%), as recommended for the detection of such effects.
(§2) All binding inhibition and cell assays were tested in duplicate or triplicate per plates, and assays were performed as at least three independent experiments. As before, binding and cytotoxicity data were converted to percent inhibition and fitted with standard log inhibitor vs. normalized response models using nonlinear regression in GraphPad Prism (GraphPad, La Jolla, CA, USA) to establish half-maximal (median) inhibitory concentration (IC50) or median lethal concentration (LC50) values. Cell assay data were fitted with a similar model that also allowed for a variable slope using the log inhibitor vs. normalized response (variable slope) model from Prism with a Hill slope (n) shared across all compounds. Cell assays and draining lymph node data were analyzed by one-way repeated-measures analysis of variance (ANOVA) followed by Dunnett’s multiple comparison test as a post hoc test for individual differences using GraphPad Prism and a significance level of p < 0.05 for all comparisons.
(§3) Data are (counterclockwise) for human CD40–CD154 (CD40L) (A); OX40–OX40L (B); BAFFR–BAFF (C); and TNF-R1–TNFα (D) and were fitted with standard binding curves. Data are average ± SD (normalized to percent binding) for n = 3 independent experiments with duplicates for each condition.

OX40–OX40L = target: T2, OX40–OX40L (Homo sapiens, UniProt P23510); assay: cell-free ELISA-type binding inhibition assay, OX40–OX40L
T2 construct: purchased Enzo Life Sciences
T2 sequence (P23510 51-183 limits assumed): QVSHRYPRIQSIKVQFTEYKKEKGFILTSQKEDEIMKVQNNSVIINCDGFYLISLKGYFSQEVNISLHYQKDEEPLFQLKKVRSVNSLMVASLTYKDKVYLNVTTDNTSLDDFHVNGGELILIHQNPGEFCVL
Procedure: (§4) In parallel with the CD40–CD154 assay, the ability of these compounds to inhibit other TNFSFR–TNFSF PPIs, including OX40–OX40L, BAFFR–BAFF, and TNF-R1–TNF-α, was also assessed (Figure 3B–D).
as §1, §2, §3

BAFFR–BAFF = target: T3, BAFFR–BAFF (Homo sapiens, UniProt Q9Y275); assay: cell-free ELISA-type binding inhibition assay, BAFFR–BAFF
T3 construct: purchased Enzo Life Sciences
Procedure: as §4, §1, §2, §3

TNF-R1–TNFα = target: T4, TNF-R1–TNFα (Homo sapiens, UniProt P01375); assay: cell-free ELISA-type binding inhibition assay, TNF-R1–TNFα; conditions: cell-free TNF-R1–TNFα binding inhibition; read-out: TNF IC50
T4 construct: purchased Enzo Life Sciences
Procedure: as §4, §1, §2, §3

[1] = system: alloantigen-induced T cell response in draining popliteal lymph node; assay: alloantigen-induced T cell expansion in draining lymph node; format: in vivo, mouse (Balb/c); conditions: Balb/c mice, DBA-2 splenocytes in footpad; 10–20 mg/kg s.c. b.i.d.; p < 0.0001 vs vehicle
Procedure: The most promising compounds of the present series were evaluated for in vivo activity using the same model of alloantigen-induced T cell expansion in the draining lymph nodes (DLNs) that was described before. This procedure involved injection of splenocytes isolated from DBA-2 mice into the footpad of Balb/c recipients. Within three full days, this causes a significant increase in the number of cells in the draining popliteal lymph node, and this is inhibited by compounds with immunosuppressive activity.
The ability to inhibit alloantigen-induced T cell response in a draining lymph node was tested as described before. In brief, BALB/c mice (10–12 weeks old, female) received a footpad injection of 1 × 10^7 splenocytes isolated from DBA-2 mice (10–12 weeks old, male). CD154 antibody (MR-1; 20 mg/kg, day −1 and 0) or test compounds (20–60 mg/kg; b.i.d. from day −1 to 3, in 20% HPβCD) were administered s.c., and the draining popliteal lymph nodes (DLNs) were collected 3 days after the alloantigen challenge. DLN cells were counted and data are shown as mean ± SD (n = 3–4 per group).
as §2
Figure 6 Inhibition of alloantigen-induced T cell response in a draining lymph node by compounds 6, 15, 18, and 19. Mice (Balb/c) received a footpad injection of allogeneic splenocytes (isolated from DBA-2 mice) and were treated with anti-CD154 antibody (MR-1; 20 mg/kg, day −1 and 0) or compounds as shown (10–40 mg/kg, b.i.d. from day −1 to 3, s.c. in 20% HPβCD). Draining (popliteal) lymph nodes were collected three days after the alloantigen challenge and cells were counted. Data are shown as mean ± SD. Significant differences compared to vehicle-treated controls are indicated by asterisks (**** p < 0.0001; one-way ANOVA followed by Dunnett’s multiple comparison test).

T3 sequence (Q9Y275 134-285 limits assumed): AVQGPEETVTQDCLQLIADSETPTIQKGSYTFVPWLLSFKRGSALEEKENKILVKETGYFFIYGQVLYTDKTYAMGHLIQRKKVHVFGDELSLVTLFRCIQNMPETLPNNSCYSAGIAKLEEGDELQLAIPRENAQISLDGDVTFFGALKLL
T4 sequence (P01375 85-233 limits assumed): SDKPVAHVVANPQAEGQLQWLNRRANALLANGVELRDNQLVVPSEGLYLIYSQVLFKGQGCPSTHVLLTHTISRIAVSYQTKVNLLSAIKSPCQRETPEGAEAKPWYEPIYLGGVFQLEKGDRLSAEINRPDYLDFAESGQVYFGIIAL

Structure (SMILES) | IC50 (CD40–CD154 (CD40L)) [µM] | IC50 (OX40–OX40L) [µM] | IC50 (BAFFR–BAFF) [µM] | IC50 (TNF-R1–TNFα) [µM] | inhibition of alloantigen-induced T cell expansion in draining lymph node [1]
O=C(Nc1ccc(-c2ccc(C(=O)Nc3cccc4c(S(=O)(=O)O)cccc34)cc2)cc1)c1ccc([N+](=O)[O-])cc1 [Compound 7, 5-(4′-(4-Nitrobenzamido)-[1,1′-biphenyl]-4-carboxamido)naphthalene-1-sulfonic acid] | 0.299 | 9.34 | 2.01 | 555 | 
O=C(Nc1ccc(-c2ccc(C(=O)Nc3cccc4cccc(S(=O)(=O)O)c34)cc2)cc1)c1ccc(C(F)(F)F)cc1 [Compound 8, 8-(4′-(4-(trifluoromethyl)benzamido)biphenyl-4-ylcarboxamido)naphthalene-1-sulfonic acid] | 57.8 | 10.1 | 42.2 | 61.1 | 
COC(=O)c1cccc2c(NC(=O)c3ccc(-c4ccc(NC(=O)c5ccc([N+](=O)[O-])cc5)cc4)cc3)cccc12 [Compound 9, Methyl 5-(4′-(4-nitrobenzamido)-[1,1′-biphenyl]-4-carboxamido)-1-naphthoate] | 56 | > 1000 | 686 | 796 | 
O=C(Nc1ccc(-c2ccc(C(=O)Nc3ccc(S(=O)(=O)O)c4cccc(S(=O)(=O)O)c34)cc2)cc1)c1ccc([N+](=O)[O-])cc1 [Compound 10, 4-(4′-(4-Nitrobenzamido)-[1,1′-biphenyl]-4-carboxamido)naphthalene-1,5-disulfonic acid] | 68.3 | 135 | 440 | 688 | 
O=C(Nc1cccc2cccc(S(=O)(=O)O)c12)c1ccc(-c2ccc(NC(=O)c3ccc([N+](=O)[O-])cc3[N+](=O)[O-])cc2)cc1 [Compound 12, 8-(4′-(2,4-Dinitrobenzamido)-[1,1′-biphenyl]-4-carboxamido)naphthalene-1-sulfonic acid] | 50.5 | 10.3 | 38.1 | 61.7 | 
COC(=O)c1ccc(C(=O)Nc2ccc(-c3ccc(C(=O)Nc4cccc5cccc(S(=O)(=O)O)c45)cc3)cc2)cc1[N+](=O)[O-] [Compound 13, 8-(4′-(4-(Methoxycarbonyl)-3-nitrobenzamido)biphenyl-4-ylcarboxamido)naphthalene-1-sulfonic acid] | 0.39 | 86.2 | 5.27 | 674 | 
Cc1cc(NC(=O)c2ccc([N+](=O)[O-])cc2)ccc1-c1ccc(C(=O)Nc2cccc3cccc(S(=O)(=O)O)c23)cc1C [Compound 16, 8-(2,2′-Dimethyl-4′-(4-nitrobenzamido)-[1,1′-biphenyl]-4-carboxamido)naphthalene-1-sulfonic acid] | 44.8 | 7.28 | 26.7 | 61.5 | 
O=C(Nc1ccc2cc(C(=O)Nc3cccc4cccc(S(=O)(=O)O)c34)ccc2c1)c1ccc([N+](=O)[O-])cc1 [Compound 17, 8-(6-(4-Nitrobenzamido)-2-naphthamido)naphthalene-1-sulfonic acid] | 57.5 | 36.6 | 81.4 | 118 | 
COC(=O)c1ccc(C(=O)Nc2ccc(-c3ccc(C(=O)Nc4cccc5cccc(S(=O)(=O)O)c45)cc3)nc2)cc1 [Compound 19, 8-(4-(5-(4-(Methoxycarbonyl)benzamido)pyridin-2-yl)benzamido)naphthalene-1-sulfonic acid] | 2.41 | 6.97 | 13.8 | 182 | inhibited the alloantigen-induced T cell response in this model in statistically significant manner
